Source: ChEMBL document CHEMBL3217532, “New analyses of MIC90 data to aid antibacterial drug discovery” (2011)

Tests used:
Format in all cases: functional
[1] = test system: Pseudomonas aeruginosa; assay: Antimicrobial activity against Pseudomonas aeruginosa 1611-09
[2] = test system: Pseudomonas aeruginosa; assay: Antimicrobial activity against Pseudomonas aeruginosa 1568-05
[3] = test system: Pseudomonas aeruginosa; assay: Antimicrobial activity against Pseudomonas aeruginosa 1765-00
[4] = test system: Pseudomonas aeruginosa; assay: Antimicrobial activity against Pseudomonas aeruginosa 1562-05
[5] = test system: Pseudomonas aeruginosa; assay: Antimicrobial activity against Pseudomonas aeruginosa 1569-05
[6] = test system: Pseudomonas aeruginosa; assay: Antimicrobial activity against Pseudomonas aeruginosa 1515-08
[7] = test system: Pseudomonas aeruginosa; assay: Antimicrobial activity against Pseudomonas aeruginosa 1764-00
[8] = test system: Pseudomonas aeruginosa; assay: Antimicrobial activity against Pseudomonas aeruginosa 1521-08
[9] = test system: Pseudomonas aeruginosa; assay: Antimicrobial activity against Pseudomonas aeruginosa 1523-08
[10] = test system: Pseudomonas aeruginosa; assay: Antimicrobial activity against Pseudomonas aeruginosa PA-4990
[11] = test system: Pseudomonas aeruginosa; assay: Antimicrobial activity against Pseudomonas aeruginosa 1957-00
[12] = test system: Pseudomonas aeruginosa; assay: Antimicrobial activity against Pseudomonas aeruginosa 1566-05
[13] = test system: Pseudomonas aeruginosa; assay: Antimicrobial activity against Pseudomonas aeruginosa 1565-05
[14] = test system: Pseudomonas aeruginosa; assay: Antimicrobial activity against Pseudomonas aeruginosa 1760-00
[15] = test system: Pseudomonas aeruginosa; assay: Antimicrobial activity against Pseudomonas aeruginosa 1951-00
[16] = test system: Pseudomonas aeruginosa; assay: Antimicrobial activity against Pseudomonas aeruginosa 1567-05
[17] = test system: Pseudomonas aeruginosa; assay: Antimicrobial activity against Pseudomonas aeruginosa 1753-00
[18] = test system: Pseudomonas aeruginosa; assay: Antimicrobial activity against Pseudomonas aeruginosa 1570-05
[19] = test system: Pseudomonas aeruginosa; assay: Antimicrobial activity against Pseudomonas aeruginosa PA-4624
[20] = test system: Pseudomonas aeruginosa; assay: Antimicrobial activity against Pseudomonas aeruginosa 1612-09
[21] = test system: Pseudomonas aeruginosa; assay: Antimicrobial activity against Pseudomonas aeruginosa 1767-00
[22] = test system: Pseudomonas aeruginosa; assay: Antimicrobial activity against Pseudomonas aeruginosa 1615-09
[23] = test system: Pseudomonas aeruginosa; assay: Antimicrobial activity against Pseudomonas aeruginosa PA-1757
[24] = test system: Pseudomonas aeruginosa; assay: Antimicrobial activity against Pseudomonas aeruginosa 1514-08
[25] = test system: Pseudomonas aeruginosa; assay: Antimicrobial activity against Pseudomonas aeruginosa 1527-08
[26] = test system: Pseudomonas aeruginosa; assay: Antimicrobial activity against Pseudomonas aeruginosa 1619-08
[27] = test system: Pseudomonas aeruginosa; assay: Antimicrobial activity against Pseudomonas aeruginosa 1954-00
[28] = test system: Pseudomonas aeruginosa; assay: Antimicrobial activity against Pseudomonas aeruginosa 1614-09
[29] = test system: Pseudomonas aeruginosa; assay: Antimicrobial activity against Pseudomonas aeruginosa 1761-00
[30] = test system: Pseudomonas aeruginosa; assay: Antimicrobial activity against Pseudomonas aeruginosa 1955-00
[31] = test system: Pseudomonas aeruginosa; assay: Antimicrobial activity against Pseudomonas aeruginosa 1766-00
[32] = test system: Pseudomonas aeruginosa; assay: Antimicrobial activity against Pseudomonas aeruginosa PA-4991
[33] = test system: Pseudomonas aeruginosa; assay: Antimicrobial activity against Pseudomonas aeruginosa 1956-00
[34] = test system: Pseudomonas aeruginosa; assay: Antimicrobial activity against Pseudomonas aeruginosa PA-4993
[35] = test system: Pseudomonas aeruginosa; assay: Antimicrobial activity against Pseudomonas aeruginosa PA-4999
[36] = test system: Pseudomonas aeruginosa; assay: Antimicrobial activity against Pseudomonas aeruginosa 1768-00
[37] = test system: Pseudomonas aeruginosa; assay: Antimicrobial activity against Pseudomonas aeruginosa PA-4995
[38] = test system: Pseudomonas aeruginosa; assay: Antimicrobial activity against Pseudomonas aeruginosa PA-4997
[39] = test system: Pseudomonas aeruginosa; assay: Antimicrobial activity against Pseudomonas aeruginosa 1509-08
[40] = test system: Pseudomonas aeruginosa; assay: Antimicrobial activity against Pseudomonas aeruginosa 1563-00
[41] = test system: Pseudomonas aeruginosa; assay: Antimicrobial activity against Pseudomonas aeruginosa 1512-08
[42] = test system: Pseudomonas aeruginosa; assay: Antimicrobial activity against Pseudomonas aeruginosa 1953-00
[43] = test system: Pseudomonas aeruginosa; assay: Antimicrobial activity against Pseudomonas aeruginosa 1752-00
[44] = test system: Pseudomonas aeruginosa; assay: Antimicrobial activity against Pseudomonas aeruginosa 1952-00
[45] = test system: Pseudomonas aeruginosa; assay: Antimicrobial activity against Pseudomonas aeruginosa 1526-08
[46] = test system: Pseudomonas aeruginosa; assay: Antimicrobial activity against Pseudomonas aeruginosa 1561-05
[47] = test system: Pseudomonas aeruginosa; assay: Antimicrobial activity against Pseudomonas aeruginosa 1613-09
[48] = test system: Pseudomonas aeruginosa; assay: Antimicrobial activity against Pseudomonas aeruginosa 1513-08
[49] = test system: Pseudomonas aeruginosa; assay: Antimicrobial activity against Pseudomonas aeruginosa 1564-05
[50] = test system: Pseudomonas aeruginosa; assay: Antimicrobial activity against Pseudomonas aeruginosa PA-75
[51] = test system: Pseudomonas aeruginosa; assay: Antimicrobial activity against Pseudomonas aeruginosa 1510-08

Measured: MIC90

CC1(C)[C@H](NC(=O)/C(=N\OCc2cc(=O)c(O)cn2O)c2csc(N)n2)C(=O)N1OS(=O)(=O)O
8 µg/mL: [23] | [51]
2 µg/mL: [8] | [24] | [39] | [46]
1 µg/mL: [4] | [5] | [6] | [9] | [12] | [14] | [15] | [19] | [22] | [25] | [32] | [35] | [38] | [42] | [43] | [44] | [48]
0.125 µg/mL: [1]
0.25 µg/mL: [11] | [27]
0.06 µg/mL: [26]
16 µg/mL: [20]
4 µg/mL: [3] | [17] | [29]
0.5 µg/mL: all other assays above

C[C@H](O)Cn1c(-c2cc(=O)c(O)c[nH]2)nn(S(=O)(=O)NC(=O)N2C(=O)[C@@H](NC(=O)/C(=N\OC(C)(C)C(=O)O)c3csc(N)n3)[C@@H]2C)c1=O
4 µg/mL: [23]
1 µg/mL: [31]
0.06 µg/mL: [1] | [4] | [7] | [11] | [33] | [36] | [37]
0.03 µg/mL: [26] | [27]
0.5 µg/mL: [3] | [6] | [8] | [14] | [17] | [19] | [20] | [24] | [29] | [39] | [46] | [48] | [51]
0.125 µg/mL: [10] | [12] | [16] | [18] | [21] | [30] | [40] | [45] | [49]
0.25 µg/mL: all other assays above

CC(C)(O/N=C(\C(=O)N[C@H]1CN(C(=O)NS(=O)(=O)n2nc(-c3cc(=O)c(O)c[nH]3)n(C[C@@H](O)CO)c2=O)C1=O)c1csc(N)n1)C(=O)O
0.06 µg/mL: [11] | [26] | [27] | [33] | [36]
2 µg/mL: [39]
1 µg/mL: [29] | [46]
8 µg/mL: [23] | [51]
0.5 µg/mL: [3] | [8] | [20] | [24] | [42] | [43] | [45] | [47] | [48]
16 µg/mL: [31]
0.125 µg/mL: [1] | [4] | [7] | [10] | [12] | [13] | [16] | [18] | [21] | [30] | [34] | [37] | [40] | [44] | [49]
0.25 µg/mL: all other assays above

C[C@H]1[C@H](NC(=O)/C(=N\OC(C)(C)C(=O)O)c2csc(N)n2)C(=O)N1C(=O)NS(=O)(=O)n1nc(-c2cc(=O)c(O)c[nH]2)n(C[C@@H](O)CO)c1=O
0.25 µg/mL: [5] | [10] | [13] | [14] | [18] | [19] | [20] | [22] | [24] | [42] | [47] | [48] | [50]
1 µg/mL: [39] | [51]
2 µg/mL: [31]
0.015 µg/mL: [26] | [27]
0.06 µg/mL: [4] | [7] | [12] | [16] | [21] | [30] | [36] | [40] | [49]
4 µg/mL: [23]
0.03 µg/mL: [1] | [11] | [33] | [34] | [37]
0.5 µg/mL: [3] | [8] | [29] | [46]
0.125 µg/mL: all other assays above

C[C@H]1[C@H](NC(=O)/C(=N\OC(C)(C)C(=O)O)c2csc(N)n2)C(=O)N1C(=O)NS(=O)(=O)n1nc(-c2cc(=O)c(O)c[nH]2)n(CC(N)=O)c1=O
0.125 µg/mL: [4] | [11] | [13] | [16] | [30] | [40] | [49]
0.5 µg/mL: [8] | [24] | [29] | [42] | [45] | [46] | [47] | [48]
4 µg/mL: [23]
16 µg/mL: [31]
0.06 µg/mL: [1] | [26] | [27] | [33] | [34] | [36] | [37]
1 µg/mL: [3] | [14] | [39]
2 µg/mL: [51]
0.25 µg/mL: all other assays above

C[C@H]1[C@H](NC(=O)/C(=N\OC(C)(C)C(=O)O)c2csc(N)n2)C(=O)N1C(=O)NS(=O)(=O)n1nc(-c2cc(=O)c(O)c[nH]2)n(C)c1=O
0.25 µg/mL: [4] | [7] | [12] | [13] | [16] | [21] | [22] | [28] | [30] | [40] | [42] | [44] | [45]
1 µg/mL: [3] | [8] | [19] | [20] | [24] | [29] | [46] | [48]
8 µg/mL: [23] | [51]
0.06 µg/mL: [27]
0.03 µg/mL: [26]
0.125 µg/mL: [1] | [11] | [18] | [33] | [34] | [36] | [37] | [47] | [49]
4 µg/mL: [39]
0.5 µg/mL: all other assays above
